Values quoted from earlier work as cited in patent US20120015404A1, “GENE CLUSTER FOR THU[…]” (HUAZHONG AGRICULTURAL UNIVERSITY, priority 2009, published 2012).

Columns and labels:
Anastrepha ludens = settings: third stage larvae
A. obliqua = settings: third stage larvae
A. serpentine = settings: third stage larvae
[1] = purified thuringiensin
[2] = system: larvae of Galleria mellonella
larvae of housefly = larvae of housefly take in thuringiensin
[3] = low concentration, Helicoverpa armigera

Structure (SMILES)	acute lethal effect (Helicoverpa armigera; [3])	effect on growth and development (Helicoverpa armigera; [3])	weight of the neonate larvae (Helicoverpa armigera; lowest testing concentration, 12 days)	LC50 (Anastrepha ludens) [μg/cm^2]	activity compared with E605 (Phaedon cochleariae)	toxicity compared with E605 (Aedes aegypti)	LC50 (A. obliqua) [μg/cm^2]	LC50 (A. serpentine) [μg/cm^2]	activity compared with E605 (Plutella maculipennis)	mutagenicity [1]	toxicity relative to DDT ([2]; injected larvae of Galleria mellonella, times of that of DDT) [times]	half lethal dose ([2]; larvae of Galleria mellonella, injected) [µg/g]	half lethal dose (larvae of housefly) [µg/mL]	activity compared with E605 (Pieris brassicae)
Nc1ncnc2c1ncn2[C@@H]1O[C@H](CO[C@H]2[C@H](O)[C@@H](O)[C@@H](O[C@@H](C(=O)O)[C@H](O)[C@H](OP(=O)(O)O)[C@H](O)C(=O)O)O[C@@H]2CO)[C@@H](O)[C@H]1O [thuringiensin A]	no acute lethal effect	unrecoverable inhibiting effect	no apparent increase											
Nc1ncnc2c1ncn2[C@@H]1O[C@H](CO[C@H]2[C@H](O)[C@@H](O)[C@@H](O[C@@H](C(=O)O)[C@H](O)[C@H](OP(=O)(O)O)[C@H](O)C(=O)O)O[C@@H]2CO)[C@@H](O)[C@H]1O [thuringiensin]				0.641	more than E605	less than E605	0.512	0.408	more than E605	no mutagenicity	1000	0.005	0.5	more than E605
